Data reported in publication PMC10051310, “Antiproliferative Activity, Multikinase Inhibition, Apoptosis- Inducing Effects and Molecular Docking of Novel Isatin–Purine Hybrids” (Medicina, 2023).

Columns and labels:
HepG2 cells [1] = assay: Flow cytometry cell cycle analysis (propidium iodide); type: cell-based, human; conditions: HepG2, 9.61 μM, 24 h
Description: In addition, the cell cycle progression assay as described by Wang et al. was used to investigate the effect of compound 15 in HepG2 cells. The biological effect of compound 15 was measured by treating HepG2 cells with 9.61 μM of the compound for 24 h. The compound’s effect on cell cycle distribution was analyzed by comparing with untreated control cells (Table 3, Figure 6).
Flow cytometry analysis was carried out using an ab139418 Propidium Iodide flow cytometry kit/BD to detect the effect of the synthesized compound 15 on cell cycle distribution. First, HepG2 cell were seeded in 6-well plates at a density of 2 × 10^5/well and incubated for 24 h. HepG2 cells were then treated with 9.61 µM of compound 15 for 24 h. The treated cells were then fixed in 70% ethanol for 12 h at 4 °C, rinsed with cold PBS, incubated with 100 μL RNase A for 0.5 h at 37 °C, and stained with Propidium Iodide (400 μL) in the dark at RT for an extra 0.5 h. The stained cells were determined utilizing Epics XLMCL™ flow cytometer equipment (Beckman Coulter, Apeldoorn, Netherlands), and the results were collected and analyzed using Flowing software (version 2.5.1, Turku Centre for Biotechnology, Turku, Finland).

HepG2 = assay: MTT cytotoxicity assay, HepG2; conditions: Homo sapiens, HepG2, 24 h, read-out: In Vitro Cytotoxicity IC50 HepG2
Description: (§4) Sunitinib, a well-known multi-kinase inhibitor, was used as a reference compound.
(§5) After incubation for 48 h, the cells were treated with different concentrations of the synthesized hybrid compounds for 24 h. After the addition of 20 μL MTT (5 mg/mL), the plates were incubated for 4 h and then 100 μL Dimethyl sulfoxide (DMSO) was added to each well to dissolve the insoluble purple formazan formed. […] The relative cell viability percentage was calculated as (A570 of treated samples/A570 of untreated sample) × 100.

Her2 = biological target: T1, Her2 (Homo sapiens, UniProt P04626); assay: In vitro Her2 enzyme assay (ELISA kit); type: biochemical
T1 construct: purchased
T1 sequence (P04626 23-1255): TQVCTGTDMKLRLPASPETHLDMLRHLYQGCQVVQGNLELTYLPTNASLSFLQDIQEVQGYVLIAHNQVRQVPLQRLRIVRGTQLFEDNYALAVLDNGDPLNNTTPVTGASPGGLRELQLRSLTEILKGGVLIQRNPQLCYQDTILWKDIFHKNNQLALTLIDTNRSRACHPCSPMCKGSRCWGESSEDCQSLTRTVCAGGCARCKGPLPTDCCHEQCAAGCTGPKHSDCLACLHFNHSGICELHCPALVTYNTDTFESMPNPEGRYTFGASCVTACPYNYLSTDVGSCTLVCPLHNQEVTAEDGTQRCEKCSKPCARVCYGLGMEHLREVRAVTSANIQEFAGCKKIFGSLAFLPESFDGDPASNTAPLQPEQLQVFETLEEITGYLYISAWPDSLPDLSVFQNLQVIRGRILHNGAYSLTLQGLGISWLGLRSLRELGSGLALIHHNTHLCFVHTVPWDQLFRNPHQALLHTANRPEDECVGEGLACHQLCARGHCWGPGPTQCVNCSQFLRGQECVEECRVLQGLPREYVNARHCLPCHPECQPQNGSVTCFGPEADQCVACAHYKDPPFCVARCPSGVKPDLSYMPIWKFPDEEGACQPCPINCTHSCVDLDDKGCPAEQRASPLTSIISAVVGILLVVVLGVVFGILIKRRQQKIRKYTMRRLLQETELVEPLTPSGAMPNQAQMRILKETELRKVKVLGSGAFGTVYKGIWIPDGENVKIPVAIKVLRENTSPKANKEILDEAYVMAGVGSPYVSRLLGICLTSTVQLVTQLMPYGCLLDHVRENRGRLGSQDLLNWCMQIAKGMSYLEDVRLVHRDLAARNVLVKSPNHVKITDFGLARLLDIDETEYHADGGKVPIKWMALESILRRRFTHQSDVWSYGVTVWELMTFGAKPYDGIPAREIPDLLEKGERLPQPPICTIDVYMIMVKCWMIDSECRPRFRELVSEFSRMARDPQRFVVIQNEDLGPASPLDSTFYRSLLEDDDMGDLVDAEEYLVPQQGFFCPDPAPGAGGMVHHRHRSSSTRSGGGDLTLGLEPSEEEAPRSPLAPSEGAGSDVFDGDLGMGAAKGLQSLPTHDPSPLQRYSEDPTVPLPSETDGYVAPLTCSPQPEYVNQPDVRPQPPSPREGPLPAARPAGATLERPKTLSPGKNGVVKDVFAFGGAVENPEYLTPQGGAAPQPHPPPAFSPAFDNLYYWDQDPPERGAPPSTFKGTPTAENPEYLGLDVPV
Description: (§1) A human ELISA kit (Enzyme-Linked Immunosorbent Assay) for each of the above-mentioned protein kinase enzymes was used in this assay. […] The mixture was then incubated at room temperature for 2.5 h, after which the wells were washed and 100 μL of the prepared biotin antibody was added and incubated for 1 h at room temperature. After another washing step, 100 μL of streptavidin solution was added and incubated for 45 min at room temperature. The wells were then washed for a third time and 100 μL of TMB Substrate reagent was added and incubated for 30 min at room temperature. Finally, 50 μL of the stop solution was added, and the absorbance was read immediately at 450 nm. A standard curve was plotted showing concentration on the X-axis and absorbance on the Y-axis.

HepG2 cells [2] = assay: Annexin V/propidium iodide apoptosis flow cytometry; type: cell-based, human; conditions: HepG2, 9.61 μM, 24 h
Description: On the other hand, an Annexin V/propidium iodide (PI) double staining assay was conducted to identify the mode of cell death promoted by compound 15 (9.61 μM) following 24 h incubation with HepG2 cells.
Flow cytometry cell apoptosis analysis was conducted to examine the apoptotic effect of the synthesized compounds using the Annexin V-FITC cell apoptosis detection kit (Biovision, K101-100). First, HepG2 cells in a density of 2 × 10^5 were seeded in 6-well plates and incubated for 24 h. The cells were then treated with 9.61 µM compound 15 for 24 h. The treated cells were then detached with trypsin (5 min, 37 °C), collected by centrifugation (5 min, 300× g), washed twice with PBS, and resuspended in 0.1 mL of a 1X binding buffer. After that, the cells were double-stained with 5 μL Annexin V-FITC and 5 μL PI in the dark at room temperature for 15 min. The stained cells were evaluated using an Epics XL-MCL™ Flow Cytometer (Beckman Coulter, Apeldoorn, Netherlands) with an excitation wavelength of 488 nm and an emission wavelength of 530 nm, and the data were interpreted using the Flowing software (version 2.5.1, Turku Centre for Biotechnology, Turku, Finland).

MCF-7 = assay: MTT cytotoxicity assay, MCF-7; conditions: Homo sapiens, MCF7, 24 h, read-out: In Vitro Cytotoxicity IC50 MCF-7
Description: as §4, §5

VEGFR2 = biological target: T2, VEGFR2 (Homo sapiens, UniProt P35968); assay: In vitro VEGFR-2 enzyme assay (ELISA kit); type: biochemical
T2 construct: purchased
T2 sequence (P35968 20-1356): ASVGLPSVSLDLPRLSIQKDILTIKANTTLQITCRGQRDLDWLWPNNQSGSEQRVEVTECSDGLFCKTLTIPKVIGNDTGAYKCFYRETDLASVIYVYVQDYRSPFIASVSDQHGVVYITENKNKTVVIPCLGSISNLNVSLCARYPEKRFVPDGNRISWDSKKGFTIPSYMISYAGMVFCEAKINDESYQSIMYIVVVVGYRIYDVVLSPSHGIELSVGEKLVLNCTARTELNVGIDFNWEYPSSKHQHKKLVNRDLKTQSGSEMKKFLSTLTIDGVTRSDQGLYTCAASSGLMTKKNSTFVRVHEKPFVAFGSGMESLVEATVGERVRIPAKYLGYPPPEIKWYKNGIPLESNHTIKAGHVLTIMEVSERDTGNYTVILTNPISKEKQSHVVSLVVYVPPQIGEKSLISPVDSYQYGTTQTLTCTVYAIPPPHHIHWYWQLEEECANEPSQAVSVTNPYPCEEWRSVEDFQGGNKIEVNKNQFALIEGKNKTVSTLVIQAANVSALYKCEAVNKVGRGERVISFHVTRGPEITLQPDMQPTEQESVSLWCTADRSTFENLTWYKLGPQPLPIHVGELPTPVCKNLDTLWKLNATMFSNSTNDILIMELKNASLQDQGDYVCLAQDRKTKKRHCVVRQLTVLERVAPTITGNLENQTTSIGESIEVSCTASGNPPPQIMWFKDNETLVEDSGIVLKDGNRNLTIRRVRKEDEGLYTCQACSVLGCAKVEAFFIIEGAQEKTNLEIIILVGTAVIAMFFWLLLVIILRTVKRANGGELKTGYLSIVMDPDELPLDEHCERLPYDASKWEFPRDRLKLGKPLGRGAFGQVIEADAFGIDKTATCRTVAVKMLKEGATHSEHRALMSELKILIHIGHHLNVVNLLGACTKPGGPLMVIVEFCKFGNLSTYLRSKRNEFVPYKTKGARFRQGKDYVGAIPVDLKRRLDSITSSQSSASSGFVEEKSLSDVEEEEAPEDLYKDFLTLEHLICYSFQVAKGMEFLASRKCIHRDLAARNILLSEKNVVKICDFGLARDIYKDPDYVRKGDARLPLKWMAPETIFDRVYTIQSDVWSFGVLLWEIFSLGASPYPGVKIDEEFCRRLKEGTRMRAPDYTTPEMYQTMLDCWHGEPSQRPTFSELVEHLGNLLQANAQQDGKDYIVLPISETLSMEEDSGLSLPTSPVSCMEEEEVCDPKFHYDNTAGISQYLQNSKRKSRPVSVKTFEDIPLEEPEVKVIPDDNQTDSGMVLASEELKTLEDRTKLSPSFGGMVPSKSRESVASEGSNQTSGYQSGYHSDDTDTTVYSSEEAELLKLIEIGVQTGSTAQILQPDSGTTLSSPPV
Description: as §1

Caspase 3 = Caspase 3 protein level ELISA in HepG2 cells; type: cell-based, human; conditions: HepG2, 9.61 μM, 24 h
Description: (§2) In these assays, compound 15 was used at its cytotoxic concentration (9.61 μM) and incubated with HepG2 cells for 24 h.
(§3) HepG2 cells were seeded in 96-well plates in triplicate and incubated for 24 h. The incubated cells were then treated with compound 15 at different concentrations. Cells treated with 0.1% DMSO (V/V) served as control. After 24 h incubation, caspase 3 and 9, BAX and Bcl-2 levels were determined using ELISA assay kits KHO1091 (Invitrogen^TM, Grand Island, NY, USA), EIA-4860 (DRU International INC., Mountainside, NJ, USA), EIA-4487 (DRU International INC., Mountainside, NJ, USA) and 99-0042 (Invitrogen^TM, Grand Island, NY, USA), respectively, according to the manufacturers’ procedures.

HeLa = assay: MTT cytotoxicity assay, HeLa; conditions: Homo sapiens, 24 h, read-out: In Vitro Cytotoxicity IC50 HeLa
Description: as §4, §5

BAX = BAX protein level ELISA in HepG2 cells; type: cell-based, human; conditions: HepG2, 9.61 μM, 24 h
Description: as §2, §3

Bcl-2 = Bcl-2 protein level ELISA in HepG2 cells; type: cell-based, human; conditions: HepG2, 9.61 μM, 24 h
Description: as §2, §3

MDA-MB-231 = assay: MTT cytotoxicity assay, MDA-MB-231; conditions: Homo sapiens, MDA-MB-231, 24 h, read-out: In Vitro Cytotoxicity IC50 MDA-MB-231
Description: as §4, §5

Caspase 9 = Caspase 9 protein level ELISA in HepG2 cells; type: cell-based, human; conditions: HepG2, 9.61 μM, 24 h
Description: as §2, §3

[3] = test system: HepG2, MCF-7, MDA-MB-231 and HeLa cell lines; assay: MTT cytotoxicity assay, summary over all four cell lines; conditions: Homo sapiens, read-out: IC50 against all tested cell lines
Description: as §4, §5

CDK2 = biological target: T3, CDK2 (Homo sapiens, UniProt P24941); assay: In vitro CDK2 enzyme assay (ELISA kit); type: biochemical
T3 construct: purchased
Description: as §1

EGFR = biological target: T4, EGFR (Homo sapiens, UniProt P00533); assay: In vitro EGFR enzyme assay (ELISA kit); type: biochemical
T4 construct: purchased
T4 sequence (P00533 25-1210): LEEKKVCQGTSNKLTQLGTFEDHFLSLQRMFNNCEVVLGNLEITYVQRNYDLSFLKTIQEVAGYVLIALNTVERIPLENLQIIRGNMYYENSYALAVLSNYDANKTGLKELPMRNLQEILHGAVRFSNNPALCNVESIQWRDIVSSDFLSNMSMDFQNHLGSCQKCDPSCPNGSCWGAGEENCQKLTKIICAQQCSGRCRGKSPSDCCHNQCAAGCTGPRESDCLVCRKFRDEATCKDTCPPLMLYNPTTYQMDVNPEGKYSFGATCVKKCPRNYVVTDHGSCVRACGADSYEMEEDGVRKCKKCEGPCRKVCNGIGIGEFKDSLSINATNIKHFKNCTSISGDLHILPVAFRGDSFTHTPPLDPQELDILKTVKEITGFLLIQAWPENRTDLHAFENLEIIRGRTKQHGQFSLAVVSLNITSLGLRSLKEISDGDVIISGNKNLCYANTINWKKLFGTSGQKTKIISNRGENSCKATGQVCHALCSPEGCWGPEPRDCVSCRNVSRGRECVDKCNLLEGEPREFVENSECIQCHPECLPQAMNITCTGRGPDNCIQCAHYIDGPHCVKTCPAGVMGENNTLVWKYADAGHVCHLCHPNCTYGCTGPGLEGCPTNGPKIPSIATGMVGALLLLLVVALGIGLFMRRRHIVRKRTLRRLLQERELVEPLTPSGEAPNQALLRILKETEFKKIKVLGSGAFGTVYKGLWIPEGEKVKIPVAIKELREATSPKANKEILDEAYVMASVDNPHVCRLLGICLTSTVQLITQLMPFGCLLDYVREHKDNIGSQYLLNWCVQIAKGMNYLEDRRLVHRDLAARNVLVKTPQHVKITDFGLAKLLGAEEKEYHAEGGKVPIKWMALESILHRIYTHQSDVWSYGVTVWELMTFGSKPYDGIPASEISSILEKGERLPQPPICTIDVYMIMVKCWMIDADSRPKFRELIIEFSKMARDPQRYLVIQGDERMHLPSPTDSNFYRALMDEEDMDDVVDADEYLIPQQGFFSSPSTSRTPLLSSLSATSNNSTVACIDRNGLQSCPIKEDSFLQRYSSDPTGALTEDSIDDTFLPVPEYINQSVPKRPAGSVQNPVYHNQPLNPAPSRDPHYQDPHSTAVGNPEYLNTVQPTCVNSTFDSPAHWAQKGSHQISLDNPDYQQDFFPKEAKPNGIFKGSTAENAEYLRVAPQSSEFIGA
Description: as §1

COc1ccc2c(c1)/C(=N\Nc1ncnc3[nH]cnc13)C(=O)N2 [Compound 15, (E)-3-(2-(9H-purin-6-yl)hydrazineylidene)-5-methoxyindolin-2-one]
accumulation at pre-G1 compared to control cells (HepG2 cells [1]): 10 fold | Cell Cycle Distribution (%) % Pre-G1 (HepG2 cells [1]; control 2.02): 21.47% | Cell Cycle Distribution (%) % G2/M (HepG2 cells [1]; control 17.45): 6.38% | Cell Cycle Distribution (%) % S (HepG2 cells [1]; control 38.16): 42.44% | Cell Cycle Distribution (%) % G0–G1 (HepG2 cells [1]; control 44.39): 51.18% | IC50 (HepG2): 9.61 ± 0.8 µM | IC50 (Her2): 0.15 µM | Apoptosis: Late (HepG2 cells [2]; control 0.19%): 12.58% | Apoptosis: Early (HepG2 cells [2]; control 0.38%): 1.86% | Apoptosis: Necrosis (HepG2 cells [2]; control 1.45%): 7.03% | viability at 9.61 µM (HepG2 cells [2]; Homo sapiens, control 97.98%, read-out: Apoptosis: Viable): 78.5% | IC50 (MCF-7): 10.8 ± 0.9 µM | IC50 (VEGFR2): 0.192 µM | Caspase 3 Expression (Caspase 3; control 93.23 ± 15.5): 368.4 ± 20.7 pg/mL | Caspase 3 Fold (Caspase 3; relative to control = 1): 3.95 fold | IC50 (HeLa): 8.93 ± 0.8 µM | BAX Expression (BAX; control 83.88 ± 23): 279.1 ± 8.15 pg/mL | BAX Fold (BAX; relative to control = 1): 3.38 fold | Bcl-2 Expression (Bcl-2; control 10.67 ± 0.83): 4.593 ± 0.22 pg/mL | Bcl-2 protein level decrease (Bcl-2; fold decrease versus control): 2.30 fold | Bcl-2 Fold (Bcl-2; relative to control = 1): 0.43 fold | IC50 (MDA-MB-231): 14.9 ± 1.2 µM | Caspase 9 Expression (Caspase 9; control 4.52 ± 1.27): 14.07 ± 0.58 pg/mL | Caspase 9 Fold (Caspase 9; relative to control = 1): 3.11 fold | IC50 [3]: 8.93 to 14.9 µM | IC50 (CDK2): 0.534 µM | IC50 (EGFR): 0.143 µM
